Data on 2 molecules can be found in patent publication US20230293478A1, “NITROGEN-CONTAINING ANALOGS OF SALINOMYCIN FOR USE IN ACUTE MYELOID LEUKEMIA” (Centre National de la Recherche Scientifique (CNRS), priority 2020, published 2023).

Assay [1] relates to MV4,11 cells transplanted into NSG mice. As to the kind of experiment: AML xenograft model, survival. Format: in vivo, mouse. As to conditions: 5 days/week for 4 weeks, single agent. The protocol:
Ironomycin was dissolved in PBS+2.5% DMSO. […] Animals were euthanized at the completion of treatment.

Assay [2] concerns WT MV4; 11 cell line. The assay is described as follows: Cell death analysis (PI, Cell titer glow) in WT MV4;11. Format: cell-based, human. As to conditions: 24 h. Here is the method:
(§1) Cells were seeded at a constant density prior to treatment in triplicate and treated with either ironomycin or DMSO over the indicated time period. Drug was refreshed at least every two days. Cells were stained with DAPI and live cell number was calculated using the BD FACSVerse (BD Biosciences). CellTitreGlo (Promega) assays were performed as per manufacturer's instructions in a 96 well plate format. To determine the half-maximal inhibitory concentration (IC50) for ironomycin, 24 h after seeding the cells at a constant density in triplicate, cells were treated with ironomcyin or DMSO for 72 hours. At day 3, after incubating the cells with 600 μM of resazurin for 6 h, fluorescence was measured at λex=530 nm and λem=590 nm, using a Microplate Reader (EnSpire, Perkin Elmer). Relative fluorescence units were converted to per cent of inhibition relative to controls on the same plate, and the data were fitted against a four-parameter logistic model to determine the IC50.
(§2) Cell death, cells were washed once with PBS and assessed using propidium iodide PI from staining (Sigma) according to manufacturer's instructions. Lipid peroxidation was assessed with BODIPYC11 staining (Thermo Fisher D3861). Cell were washed once with PBS and stained for 30 minutes in the dark at room temperature in 1 ml of 7.5 μM PBS solution, washed once and assessed according to manufacturer's instructions. […]

Assay [3] deals with primary AML samples derived from patients with venetoclax resistant or refractory disease. As to the kind of experiment: Primary patient synergy analysis (PI viability, Bliss). In kind it is cell-based, human. As to conditions: monotherapy, 1 μM, 5 days, five primary samples. Here is the method:
Samples were collected from patients with AML treated at the Alfred Hospital after obtaining informed consent. Studies were conducted in accordance with the approved protocols through the Human Research Ethics Committee of the Alfred Hospital and the Declaration of Helsinki for all subjects. Primary AML cells were cultured in StemSpan SFEM (Stemcell Technologies) supplemented with 10 ng/mL IL-3, 10 ng/mL IL-6, 50 ng/mL SCF and 50 ng/mL FLT3L (all Peprotech) and 35 nM UM171 and 500 nM stemreginin (StemCell Technologies). For primary patient synergy analyses, 50,000 AML cells were plated in each well of a 96-well plate, and cultured with escalating doses of ironomycin and venetoclax for 5 days in medium conditions as described above. After 5 days, viability was assessed via propidium iodide staining and flow cytometry (BD FACSCanto). Synergy was determined using the Bliss synergy model.

For the next assay, the system named is HL-60. As to the kind of experiment: IC50 determination (resazurin), HL-60. Format: cell-based. As to conditions: Homo sapiens; HL-60 cell line, 72 hours. Here is the method: as §1
(Resazurin is reduced to fluorescent resorufin, in cell work by metabolically active cells.)

A further assay relates to SKM-1. As to the kind of experiment: IC50 determination (resazurin), SKM-1. As to conditions: Homo sapiens; SKM-1 cell line, 72 hours. In kind it is cell-based. Here is the method: as §1
Assay [4] concerns lysosomal iron in MOLM13 cells. As to the kind of experiment: Lysosomal iron, RhoNoxM probe flow cytometry. Format: cell-based, human. The protocol: Ironomycin (AM5) and AM23 were synthesized as previously described (Mai et al., 2017), venetoclax (ABT-199), biranapant and IDN-6556 are commercially available. Metformin and phenformin, were purchased from sigma (PHR1084 and PHR1573) and reconstituted freshly in culture medium. Turn-off Fe2+ probe (Petrat et al., 2002) was synthesized as previously reported (Muller et al., 2018), dose was 1 μM for 1 h for flow cytometry experiments. RhonoxM (Hirayarna et al., 2013) was synthesized as previously reported (Mai et al., 2017), dose was 1 μM, 1 h for flow cytometry experiments. Liproxstatin-1 (sigma SML1414, DMSO), ferrostatin (sigma SML0583, DMSO), RSL3 (sigma SML2234, DMSO), 6 aminonicotidamide (sigma A68203, DMSO), Z-VADfmk (R&D system FMK001, DMSO).
(In general: Flow cytometry measures light scatter and fluorescence of single cells or particles in a stream.)

The test system of assay [5] is mitochondrial ROS in MV4; 11 and OCI-AML3. As to the kind of experiment: Mitochondrial ROS, Mitosox Red flow cytometry. Format: cell-based, human. The following applies: 500 nM, 24 hours.
For assay [6], the system named is cleaved PARP1 and cleaved caspase 3 in MOLM-13 cell line. As to the kind of experiment: Immunoblot of cleaved PARP1 and cleaved caspase 3. As to conditions: 500 nM, 24 h. In kind it is cell-based, human. The protocol: Cells were lysed in 20 mM HEPES pIH7.9, 0.5 mM EDTA, 2% SDS plus 1× protease inhibitor cocktail (Roche) by brief sonication. Lysates were heated to 95° C. in SDS sample buffer with 50 mM DTT for 5 min, separated by SDS-PAGE and transferred to PVDF membrane (Millipore). Membranes were blocked in 5% milk or BSA in TBS +0.1% Tween-20, probed with the indicated antibodies, and reactive bands visualised using ECL Prime (GE).
On the technique in general: Immunoblotting shows a protein as a band on a membrane.

Another assay relates to K 562. The assay is described as follows: IC50 determination (resazurin), K 562. In kind it is cell-based. The following applies: Homo sapiens, K562; K 562 cell line, 72 hours. Here is the method:
as §1

The subject of another assay is NB4. As to the kind of experiment: IC50 determination (resazurin), NB4. Format: cell-based. As to conditions: Homo sapiens, NB-4; NB4 cell line, 72 hours. Here is the method:
as §1

Assay [7] has as its system mitochondrial iron in MOLM13 cells. The assay is described as follows: ICP-MS iron on isolated mitochondria. Format: cell-based, human. The following applies: ICP-MS on isolated mitochondria after treatment.
A further assay has as its system MOLM-13. The assay is described as follows: IC50 determination (resazurin), MOLM-13. The following applies: Homo sapiens; MOLM-13 cell line, 72 hours. Format: cell-based. The protocol:
as §1

In a further assay the test system is NOMO-1. As to the kind of experiment: IC50 determination (resazurin), NOMO-1. In kind it is cell-based. The following applies: Homo sapiens; NOMO-1 cell line, 72 hours. The protocol:
as §1

The next assay has as its system OCI-AML3. The assay is described as follows: IC50 determination (resazurin), OCI-AML3. Format: cell-based. As to conditions: Homo sapiens, OCI-AML-3; OCI-AML3 cell line, 72 hours. Here is the method: as §1
For assay [8], the system named is mitochondria in MV4; 11 cells. The assay is described as follows: Transmission electron microscopy of mitochondria. In kind it is cell-based, human. As to conditions: 500 nM, 16 h. Here is the method:
Cells were fixed in 2% GA in 0.1M sodium cacodylate buffer for 2 hours at room temperature, rinsed with 0.1M na-cacodylaatbuffer (5×10 min), and posffixation was done with 1% Osmium tetroxide and 1.5% Potassium ferricyanide for 2 hours at 4C in the dark. After rinsing in milliQ water, cells were stained with 0.5% Uranylacetate in MQ (±PH 4) for 1 h at 4° C. Cells were scraped and embedded in low melting agarose before serial dehydration in ethanol followed by propylene oxide and embedding into epon-araldyte resin. After polymerisation of the resin at 65 C for 48 hours, ultrathin sections were cut on a Leica UCT ultramicrotome and sections stained with uranyl acetate and lead citrate. Sections were examined on a Jeol JEM-1400Plus transmission electron microscope equipped with a Matataki flash camera at 80 keV.

For the next assay, the system named is AML cell lines. The assay is described as follows: Cell proliferation and PI cell death in AML cell lines. In kind it is cell-based, human. As to conditions: all AML cell lines tested. Here is the method: as §1, §2
Another assay relates to KASUMI-1. The assay is described as follows: IC50 determination (resazurin), KASUMI-1. The following applies: Homo sapiens; KASUMI-1 cell line, 72 hours. Format: cell-based. Here is the method: as §1
The subject of another assay is HEL 92.1.7. As to the kind of experiment: IC50 determination (resazurin), HEL 92.1.7. In kind it is cell-based. As to conditions: Homo sapiens; HEL 92.1.7 cell line, 72 hours. The protocol:
as §1

Assay [9] relates to WT MV4; 11 cell line. As to the kind of experiment: PI cell death in medium with different glucose concentration. As to conditions: 500 nM, 48 h. Format: cell-based, human. Here is the method: (§3) Cell death, cells were washed once with PBS and assessed using propidium iodide PI from staining (Sigma) according to manufacturer's instructions. Lipid peroxidation was assessed with BODIPYC11 staining (Thermo Fisher D3861). Cell were washed once with PBS and stained for 30 minutes in the dark at room temperature in 1 ml of 7.5 μM PBS solution, washed once and assessed according to manufacturer's instructions. Mitochondrial ROS were assessed with mitosox red probe (thermofisher M36008) according to manufacturer's instructions. All flow cytometry analyses were performed on a LSR Fortessa X-20 flow cytometer (BD Biosciences) and all data analysed with FlowJo. Cell sorting was performed on a FACSAria Fusion 5 (BD Biosciences).

In the next assay the test system is KG1. As to the kind of experiment: IC50 determination (resazurin), KG1. Format: cell-based. The following applies: Homo sapiens, KG-1; KG1 cell line, 72 hours. The protocol: as §1
In assay [10] the test system is lipid ROS in OCIAML3 and MOLM-13 cells. As to the kind of experiment: Lipid peroxidation, C11 BODIPY 581/591 staining. Format: cell-based, human. The following applies: 500 nM, 48 hours. Here is the method: as §3
A further assay relates to human AML cell lines. As to the kind of experiment: IC50 determination across various human AML cell lines. In kind it is cell-based. The following applies: range over various human AML cell lines, 72 hours; read-out: Half maximal inhibitory concentration (IC50). Here is the method: as §1
A further assay concerns MV4-11. The assay is described as follows: IC50 determination (resazurin), MV4-11. In kind it is cell-based. As to conditions: Homo sapiens; MV4-11 cell line, 72 hours. The protocol: as §1
The conditions of assay [11]: Mai et al., 2017; cited from earlier work.

For the molecule Venetoclax [reference compound], the survival entry in [1] (venetoclax 75 mg/kg oral gavage) is on record as “did not result in any survival advantage”. Also, the cell death entry with WT MV4; 11 cell line [2] is recorded as “induce cell death”. For the same molecule, the impaired cell viability in assay [3] was 6-40%.

`C#CCN[C@@H]1C=C[C@]2(O[C@H]([C@@H](CC)C(=O)[C@@H](C)[C@@H](O)[C@H](C)[C@@H]3O[C@@H]([C@@H](CC)C(=O)O)CC[C@@H]3C)[C@@H](C)C[C@H]2C)O[C@@]12CC[C@@](C)([C@H]1CC[C@](O)(CC)[C@H](C)O1)O2` [Ironomycin]: the survival entry in assay [1] (ironomycin 1 mg/kg IP) was “did not result in any survival advantage”. The IC50 with HL-60 turned out to be 0.026 µM; in the assay with SKM-1, 0.045 µM; in the assay on K 562 it was 0.41 µM; in the assay with NB4 it was 0.047 µM; with MOLM-13 it was 0.07 µM; in the assay on NOMO-1 it was 0.03 µM. In addition, the IC50 in the assay on OCI-AML3 was 0.118 µM; in the assay on KASUMI-1 it was 0.016 µM; with HEL 92.1.7 it was 0.26 µM; in the assay with KG1, 0.014 µM; with human AML cell lines, 0.014 to 0.41 µM; with MV4-11, 0.061 µM. The lysosomal iron result in assay [4] is “increased lysosomal iron”. In addition, in [5], the “mitochondrial ROS” value is “increased mitochondrial ROS”. In addition, in assay [6], the “cleavage of caspase 3 and PARP1” value is given as “did not cleaved caspase 3 nor PARP1”. Moreover, in assay [7], the “total iron in mitochondria” value is on record as “decrease in total iron into the mitochondria”. Also, in the assay on WT MV4; 11 cell line [2], the cell death result is “induce cell death”. Besides, the cristae structure result in assay [8] was “disturbed the cristae structure”. Besides, in the assay on AML cell lines, the “cell death (PI staining)” value is on record as “rapid cell death”. Moreover, in the assay with AML cell lines, the proliferation entry is reported as “proliferation block in a dose dependent manner”. Besides, the “efficacy in killing AML cells” value is “higher efficacy” in the assay on WT MV4; 11 cell line [9] (increased glucose concentration) and “less efficient” in the assay with WT MV4; 11 cell line [9] (low glucose conditions). Besides, the lipid peroxidation entry in assay [10] is on record as “induced a lipid peroxidation”. Also, the “potency relative to Salinomycin” value in assay [11] was “ten times more potent”.
